Read-outs that look alike come from different tables or passages of the source.
Tests used:
Format in all cases: cell-based
[1] = Cytotoxicity (CC50) in MT4 cells, mock-infected; conditions: human
Description: (§1) Infected and uninfected cells are diluted in cell growth medium and 35 μL of 2000 (for MT4) cells is added to each well of the assay plates. Assay plates were then incubated in a 37° C. incubator. After 5 days of incubation, 25 μL of 2× concentrated CellTiter-Glo™ Reagent (catalog # G7573, Promega Biosciences, Inc., Madison, Wis.) was added to each well of the assay plate. Cell lysis was carried out by incubating at room temperature for 2-3 minutes, and then chemiluminescence was read using the Envision reader (PerkinElmer).

HIV-IIIb = assay: Antiviral assay in MT4 cells; conditions: MT4 cells, HIV-IIIb, 5 days, read-out: EC50
Description: 1 mL aliquots of 2×10^6 MT4 cells are pre-infected for 1 and 3 hours respectively at 37° C. with 25 μL (MT4) or of either cell growth medium (mock-infected) or a fresh 1:250 dilution of an HIV-IIIb concentrated ABI stock (0.004 m.o.i. for MT4 cells). Infected and uninfected cells are diluted in cell growth medium and 35 μL of 2000 (for MT4) cells is added to each well of the assay plates.
as §1, with “Assay” for “Infected and uninfected cells are diluted in cell growth medium and 35 μL of 2000 (for MT4) cells is added to each well of the assay plates. Assay”

PXR (NR1I2) = PXR (NR1I2) (Homo sapiens (Human), UniProt O75469); assay: Human PXR activation assay (luciferase reporter, DPX2 cells); conditions: human
Description: Luciferase Reporter Gene Assay.
A stably transformed tumor cell line (DPX2) was plated on 96-well microtiter plates. […]. The number of viable cells was determined and the reporter gene activity was assessed. […]

[2] = Human immunodeficiency virus 1, IIIB, MT4, 120 h
[3] = 15 uM, DPX2 cells, % Emax relative to rifampicin, adjusted for DMSO background, read-out: PXR % inh at 15 uM (adjusted)

Sequence of PXR (NR1I2) (O75469 whole entry): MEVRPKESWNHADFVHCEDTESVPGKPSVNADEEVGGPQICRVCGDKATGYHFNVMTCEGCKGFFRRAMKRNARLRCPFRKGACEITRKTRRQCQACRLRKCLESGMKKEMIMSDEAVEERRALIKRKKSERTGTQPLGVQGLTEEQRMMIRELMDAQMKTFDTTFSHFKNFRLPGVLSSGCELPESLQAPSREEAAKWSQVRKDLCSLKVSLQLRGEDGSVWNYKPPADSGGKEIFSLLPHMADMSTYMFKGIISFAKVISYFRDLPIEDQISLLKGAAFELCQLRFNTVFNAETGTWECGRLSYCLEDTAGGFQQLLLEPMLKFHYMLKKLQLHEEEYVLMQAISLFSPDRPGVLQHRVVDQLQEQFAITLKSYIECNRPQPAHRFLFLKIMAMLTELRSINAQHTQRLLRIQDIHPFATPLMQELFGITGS

SMILES | CC50 at 5 days ([1]; mock-infected (uninfected)) | EC50 (HIV-IIIb; [2]) | inhibition at 24 h, 15 µM (PXR (NR1I2); [3]) | CC50 at 5 days ([1]; mock-infected) | EC50 (HIV-IIIb; Human immunodeficiency virus 1, 120 h) | inhibition at 24 h, 15 µM (PXR (NR1I2))
CN1C(=O)c2c(O)c(=O)c(C(=O)NCc3c(F)cc(F)cc3F)cn2[C@@H]2COC[C@@H]21 [Compound 43] | 11300 nM | 2.88 nM | 13% |  |  | 
CCN1C(=O)c2c(O)c(=O)c(C(=O)NCc3c(F)cc(F)cc3F)cn2[C@@H]2COC[C@@H]21 [Compound 45] | 36700 nM | 7.26 nM | 33% |  |  | 
CN1C(=O)c2c(O)c(=O)c(C(=O)NCc3c(F)cc(F)cc3F)cn2[C@@H]2COC[C@H]21 [Compound 46] | 28200 nM | 2.93 nM | 8% |  |  | 
CCN1C(=O)c2c(O)c(=O)c(C(=O)NCc3ccc(F)c(C)c3F)cn2[C@H]2CCOC[C@H]21 [Compound 47] | 27200 nM | 5.7 nM | 9% |  |  | 
CN1C(=O)c2c(O)c(=O)c(C(=O)NCc3c(F)cc(F)cc3F)cn2[C@H]2CCOC[C@H]21 [Compound 48] | 32300 nM | 4.3 nM | 1% |  |  | 
CN1C(=O)c2c(O)c(=O)c(C(=O)NCc3ccc(F)c(Cl)c3F)cn2[C@H]2CCOC[C@H]21 [Compound 49] | 12000 nM | 3.32 nM | 1% |  |  | 
O=C(NCc1ccc(F)c(Cl)c1F)c1cn2c(c(O)c1=O)C(=O)N(CC(F)(F)F)[C@@H]1COCC[C@@H]12 [Compound 50] | 48400 nM | 2.68 nM | 1% |  |  | 
CN1C(=O)c2c(O)c(=O)c(C(=O)NCc3c(F)cc(F)cc3F)cn2[C@H]2C[C@@H]3C[C@@H]3[C@H]21 [Compound 51, (6aR,6bS,7aS,8aS)-4-hydroxy-6-methyl-3,5-dioxo-N-(2,4,6-trifluorobenzyl)-5,6,6a,6b,7,7a,8,8a-octahydro-3H-cyclopropa[4,5]cyclopenta[1,2-e]pyrido[1,2-a]pyrazine-2-carboxamide] |  |  | 33% | 6710 nM | 5.28 nM | 
CN1C(=O)c2c(O)c(=O)c(C(=O)NCc3ccc(F)c(Cl)c3F)cn2[C@H]2C[C@@H]3C[C@@H]3[C@H]21 [Compound 52, (6aR,6bS,7aS,8aS)-N-(3-chloro-2,4-difluorobenzyl)-4-hydroxy-6-methyl-3,5-dioxo-5,6,6a,6b,7,7a,8,8a-octahydro-3H-cyclopropa[4,5]cyclopenta[1,2-e]pyrido[1,2-a]pyrazine-2-carboxamide] |  | 4.95 nM | 24% | 2820 nM |  | 
CN1C(=O)c2c(O)c(=O)c(C(=O)NCc3c(F)cc(F)cc3F)cn2[C@H]2[C@@H]3C[C@@H]3C[C@H]21 [Compound 53, (6aR,7aR,8aR,8bS)-4-hydroxy-6-methyl-3,5-dioxo-N-(2,4,6-trifluorobenzyl)-5,6,6a,7,7a,8,8a, 8b-octahydro-3H-cyclopropa[3,4]cyclopenta[1,2-e]pyrido[1,2-a]pyrazine-2-carboxamide] |  | 6.04 nM | 46% | 13300 nM |  | 
C[C@@H]1OCC[C@H]2[C@@H]1N(C)C(=O)c1c(O)c(=O)c(C(=O)NCc3c(F)cc(F)cc3F)cn12 [Compound 54, (4S,4aS,11aS)-7-hydroxy-4,5-dimethyl-6,8-dioxo-N-(2,4,6-trifluorobenzyl)-1,2,4,4a,5,6,8,11a-octahydropyrano[3,4-e]pyrido[1,2-a]pyrazine-9-carboxamide] |  | 2.92 nM | 8% | 23900 nM |  | 
C[C@@H]1OCC[C@H]2[C@@H]1N(C)C(=O)c1c(O)c(=O)c(C(=O)NCc3ccc(F)c(Cl)c3F)cn12 [Compound 55, (4S,4aS,11aS)-N-(3-chloro-2,4-difluorobenzyl)-7-hydroxy-4,5-dimethyl-6,8-dioxo-1,2,4,4a,5,6,8,11a-octahydropyrano[3,4-e]pyrido[1,2-a]pyrazine-9-carboxamide] |  | 1.91 nM | 2% | 9660 nM |  | 
CCN1C(=O)c2c(O)c(=O)c(C(=O)NCc3c(F)cc(F)cc3F)cn2[C@H]2COCC[C@H]21 [Compound 56, (4aR,11aR)-5-ethyl-7-hydroxy-6,8-dioxo-N-(2,4,6-trifluorobenzyl)-1,3,4,4a,5,6,8,11a-octahydropyrano[4,3-e]pyrido[1,2-a]pyrazine-9-carboxamide] |  | 3.07 nM | 10% | 4490 nM |  | 
CCN1C(=O)c2c(O)c(=O)c(C(=O)NCc3ccc(F)c(Cl)c3F)cn2[C@H]2COCC[C@H]21 [Compound 57, (4aR,11aR)-N-(3-chloro-2,4-difluorobenzyl)-5-ethyl-7-hydroxy-6,8-dioxo-1,3,4,4a,5,6,8,11a-octahydropyrano[4,3-e]pyrido[1,2-a]pyrazine-9-carboxamide] |  | 2.29 nM | 3% | 6450 nM |  | 
CN1C(=O)c2c(O)c(=O)c(C(=O)NCc3c(F)cc(F)cc3F)cn2[C@H]2CCCC[C@H]21 [Compound 59] |  | 3.42 nM | 44% | 11400 nM |  | 
O=C(NCc1c(F)cc(F)cc1F)c1cn2c(c(O)c1=O)C(=O)N[C@@H]1CCCC[C@@H]12 [Compound 60] | 13800 nM | 1.9 nM | 2% |  |  | 
O=C(NCc1c(F)cc(F)cc1F)c1cn2c(c(O)c1=O)C(=O)N[C@H]1CCCC[C@@H]12 [Compound 61] | 31400 nM | 6.3 nM |  |  |  | 0%
O=C(NCc1c(F)cc(F)cc1F)c1cn2c(c(O)c1=O)C(=O)N[C@@H]1CCCC[C@H]12 [Compound 62] | 24200 nM | 7.3 nM |  |  |  | 0%

Reference: patent US9795602B2, “Polycyclic-carbamoylpyridone compounds and their pharmaceutical use” (Gilead Sciences, Inc., priority 2014, dated 2017)
